These results are taken from ChEMBL document CHEMBL3596184, “Prostate tumor specific peptide-peptoid hybrid prodrugs” (2015).

SMILES strings stand for the structures. Numbered stars: 1 amine (or outer) side, 2 acyl side, 3 side chain; on linkers, the order of the positions; unused ones are H or OH. Square brackets hold non-standard residues; d marks the D form. Peptide text beside a SMILES is read from it. γGlu = O=C(O)[C@H](CCC(=O)[*:2])N[*:1]; Hyp = O=C(O)[C@@H]1C[C@@H](O)CN1; Nspe = C[C@H](NCC(=O)O)c1ccccc1; Chg = N[C@H](C(=O)O)C1CCCCC1; Nlys = NCCCCNCC(=O)O

Holding throughout (type): functional
In assay [1] the test system is LNCaP. Put plainly: Cytotoxicity against human LNCAP cells assessed as induction of cell death after 48 hrs by MTS assay. As to conditions: read-out: LC50 (the source's name). On the technique in general: Formazan colour is commonly taken as a measure of viable cells.
A further assay deals with PC-3. Briefly: Cytotoxicity against human PC3 cells assessed as induction of cell death after 48 hrs by MTS assay. As to conditions: PC-3, 48 h, read-out: LC50 (the source's name).
Assay [2] deals with LNCaP. Put plainly: Selectivity ratio of LC50 for human PC3 cells to LC50 for human LNCaP cells.

With `CC(C)C[C@H](NC(=O)[C@H](CCCCN)NC(=O)[C@H](CO)NC(=O)[C@H](CO)NC(=O)[C@H](Cc1cnc[nH]1)NC(=O)CC[C@H](NC(=O)CC[C@H](N)C(=O)O)C(=O)O)C(=O)N[C@@H](CCC(N)=O)C(=O)N(CCCCN)CC(=O)N(CC(=O)N(CC(=O)N(CCCCN)CC(=O)N(CC(=O)N(CC(=O)N(CCCCN)CC(=O)N(CC(=O)N(CC(=O)N(CCCCN)CC(=O)N(CC(=O)N(CC(N)=O)[C@@H](C)c1ccccc1)[C@@H](C)c1ccccc1)[C@@H](C)c1ccccc1)[C@@H](C)c1ccccc1)[C@@H](C)c1ccccc1)[C@@H](C)c1ccccc1)[C@@H](C)c1ccccc1)[C@@H](C)c1ccccc1` ({γGlu-γGlu}-HSSKLQ[Nlys][Nspe][Nspe][Nlys][Nspe][Nspe][Nlys][Nspe][Nspe][Nlys][Nspe][Nspe]-NH2), the CC50 in the assay on LNCaP [1] worked out at 10 µM; in the assay with PC-3 it was 18 µM. Besides, the RatioLC50 with LNCaP [2] amounted to 1.8.

Turning to `C[C@@H](c1ccccc1)N(CC(N)=O)C(=O)CN(C(=O)CN(CCCCN)C(=O)CN(C(=O)CN(C(=O)CN(CCCCN)C(=O)CN(C(=O)CN(C(=O)CN(CCCCN)C(=O)CN(C(=O)CN(C(=O)CN(CCCCN)C(=O)CC[C@H](NC(=O)CC[C@H](NC(=O)CC[C@H](N)C(=O)O)C(=O)O)C(=O)O)[C@@H](C)c1ccccc1)[C@@H](C)c1ccccc1)[C@@H](C)c1ccccc1)[C@@H](C)c1ccccc1)[C@@H](C)c1ccccc1)[C@@H](C)c1ccccc1)[C@@H](C)c1ccccc1` ({γGlu-γGlu-γGlu}-[Nlys][Nspe][Nspe][Nlys][Nspe][Nspe][Nlys][Nspe][Nspe][Nlys][Nspe][Nspe]-NH2), the CC50 was 15 µM with LNCaP [1] and 17 µM in the assay on PC-3. Also, the RatioLC50 with LNCaP [2] stood at 1.1.

`CC(C)C[C@H](NC(=O)[C@H](CCCCN)NC(=O)[C@H](CO)NC(=O)[C@H](CO)NC(=O)[C@@H](N)Cc1cnc[nH]1)C(=O)N[C@@H](CCC(N)=O)C(=O)N(CCCCN)CC(=O)N(CC(=O)N(CC(=O)N(CCCCN)CC(=O)N(CC(=O)N(CC(=O)N(CCCCN)CC(=O)N(CC(=O)N(CC(=O)N(CCCCN)CC(=O)N(CC(=O)N(CC(N)=O)[C@@H](C)c1ccccc1)[C@@H](C)c1ccccc1)[C@@H](C)c1ccccc1)[C@@H](C)c1ccccc1)[C@@H](C)c1ccccc1)[C@@H](C)c1ccccc1)[C@@H](C)c1ccccc1)[C@@H](C)c1ccccc1` (H-HSSKLQ[Nlys][Nspe][Nspe][Nlys][Nspe][Nspe][Nlys][Nspe][Nspe][Nlys][Nspe][Nspe]-NH2): the CC50 in the assay with LNCaP [1] is 9.2 µM; in the assay with PC-3, 19.6 µM. Moreover, the RatioLC50 in the assay on LNCaP [2] amounted to 2.1.

Turning to `CC(C)C[C@H](NC(=O)[C@H](CCCCN)NC(=O)[C@H](CO)NC(=O)[C@H](CO)NC(=O)[C@H](Cc1cnc[nH]1)NC(=O)CN(CCCCN)C(=O)CN(C(=O)CN(C(=O)CNCCCCN)[C@@H](C)c1ccccc1)[C@@H](C)c1ccccc1)C(=O)N[C@@H](CCC(N)=O)C(=O)N(CC(=O)N(CC(=O)N(CCCCN)CC(=O)N(CC(=O)N(CC(=O)N(CCCCN)CC(=O)N(CC(=O)N(CC(=O)N(CCCCN)CC(N)=O)[C@@H](C)c1ccccc1)[C@@H](C)c1ccccc1)[C@@H](C)c1ccccc1)[C@@H](C)c1ccccc1)[C@@H](C)c1ccccc1)[C@@H](C)c1ccccc1` (H-[Nlys][Nspe][Nspe][Nlys]HSSKLQ[Nspe][Nspe][Nlys][Nspe][Nspe][Nlys][Nspe][Nspe][Nlys]-NH2), the CC50 in the assay with LNCaP [1] is 5.9 µM; in the assay with PC-3 it was 19.1 µM. In the assay on LNCaP [2], the RatioLC50 is given as 3.2.

As for `C[C@@H](c1ccccc1)N(CC(N)=O)C(=O)CN(C(=O)CN(CCCCN)C(=O)CN(C(=O)CN(C(=O)CN(CCCCN)C(=O)CN(C(=O)CN(C(=O)CN(CCCCN)C(=O)CN(C(=O)CN(C(=O)CN(CCCCN)C(=O)CC[C@H](N)C(=O)O)[C@@H](C)c1ccccc1)[C@@H](C)c1ccccc1)[C@@H](C)c1ccccc1)[C@@H](C)c1ccccc1)[C@@H](C)c1ccccc1)[C@@H](C)c1ccccc1)[C@@H](C)c1ccccc1`, the CC50 with LNCaP [1] was 9.5 µM; with PC-3, 12 µM. The RatioLC50 with LNCaP [2] is given as 1.3.

With `CC(=O)N[C@@H](CCC(=O)N[C@@H](CCC(=O)N[C@@H](Cc1cnc[nH]1)C(=O)N[C@@H](CO)C(=O)N[C@@H](CO)C(=O)N[C@@H](CCCCN)C(=O)N[C@@H](CC(C)C)C(=O)N[C@@H](CCC(N)=O)C(=O)N(CCCCN)CC(=O)N(CC(=O)N(CC(=O)N(CCCCN)CC(=O)N(CC(=O)N(CC(=O)N(CCCCN)CC(=O)N(CC(=O)N(CC(=O)N(CCCCN)CC(=O)N(CC(=O)N(CC(N)=O)[C@@H](C)c1ccccc1)[C@@H](C)c1ccccc1)[C@@H](C)c1ccccc1)[C@@H](C)c1ccccc1)[C@@H](C)c1ccccc1)[C@@H](C)c1ccccc1)[C@@H](C)c1ccccc1)[C@@H](C)c1ccccc1)C(=O)O)C(=O)O` (Ac-[γGlu][γGlu]HSSKLQ[Nlys][Nspe][Nspe][Nlys][Nspe][Nspe][Nlys][Nspe][Nspe][Nlys][Nspe][Nspe]-NH2), the CC50 with LNCaP [1] was found to be 18 µM; in the assay on PC-3, 28 µM. Besides, the RatioLC50 in the assay with LNCaP [2] was determined as 1.6.

For `CC(C)C[C@H](NC(=O)[C@H](CCCCN)NC(=O)[C@H](CO)NC(=O)[C@H](CO)NC(=O)[C@H](Cc1cnc[nH]1)NC(=O)CNCCCCN)C(=O)N[C@@H](CCC(N)=O)C(=O)N(CC(=O)N(CC(=O)N(CCCCN)CC(=O)N(CC(=O)N(CC(=O)N(CCCCN)CC(=O)N(CC(=O)N(CC(=O)N(CCCCN)CC(=O)N(CC(=O)N(CC(N)=O)[C@@H](C)c1ccccc1)[C@@H](C)c1ccccc1)[C@@H](C)c1ccccc1)[C@@H](C)c1ccccc1)[C@@H](C)c1ccccc1)[C@@H](C)c1ccccc1)[C@@H](C)c1ccccc1)[C@@H](C)c1ccccc1` (H-[Nlys]HSSKLQ[Nspe][Nspe][Nlys][Nspe][Nspe][Nlys][Nspe][Nspe][Nlys][Nspe][Nspe]-NH2), the CC50 with LNCaP [1] came to 5.7 µM; in the assay with PC-3, 16.9 µM. Also, in the assay on LNCaP [2], the RatioLC50 amounted to 3.

Turning to `CC(C)C[C@H](NC(=O)[C@H](CCCCN)NC(=O)[C@H](CO)NC(=O)[C@H](CO)NC(=O)[C@H](Cc1cnc[nH]1)NC(=O)CC[C@H](NC(=O)CC[C@H](NC(=O)CC[C@H](N)C(=O)O)C(=O)O)C(=O)O)C(=O)N[C@@H](CCC(N)=O)C(=O)N(CCCCN)CC(=O)N(CC(=O)N(CC(=O)N(CCCCN)CC(=O)N(CC(=O)N(CC(=O)N(CCCCN)CC(=O)N(CC(=O)N(CC(=O)N(CCCCN)CC(=O)N(CC(=O)N(CC(N)=O)[C@@H](C)c1ccccc1)[C@@H](C)c1ccccc1)[C@@H](C)c1ccccc1)[C@@H](C)c1ccccc1)[C@@H](C)c1ccccc1)[C@@H](C)c1ccccc1)[C@@H](C)c1ccccc1)[C@@H](C)c1ccccc1` ({γGlu-γGlu-γGlu}-HSSKLQ[Nlys][Nspe][Nspe][Nlys][Nspe][Nspe][Nlys][Nspe][Nspe][Nlys][Nspe][Nspe]-NH2), the CC50 came out at 17 µM with LNCaP [1] and 34 µM in the assay on PC-3. For the same compound, in the assay on LNCaP [2], the RatioLC50 is 2.

`CC(=O)N[C@@H](CCC(=O)N[C@@H](CCC(=O)N[C@@H](CCC(=O)N[C@@H](Cc1cnc[nH]1)C(=O)N[C@@H](CO)C(=O)N[C@@H](CO)C(=O)N[C@@H](CCCCN)C(=O)N[C@@H](CC(C)C)C(=O)N[C@@H](CCC(N)=O)C(=O)N(CCCCN)CC(=O)N(CC(=O)N(CC(=O)N(CCCCN)CC(=O)N(CC(=O)N(CC(=O)N(CCCCN)CC(=O)N(CC(=O)N(CC(=O)N(CCCCN)CC(=O)N(CC(=O)N(CC(N)=O)[C@@H](C)c1ccccc1)[C@@H](C)c1ccccc1)[C@@H](C)c1ccccc1)[C@@H](C)c1ccccc1)[C@@H](C)c1ccccc1)[C@@H](C)c1ccccc1)[C@@H](C)c1ccccc1)[C@@H](C)c1ccccc1)C(=O)O)C(=O)O)C(=O)O` (Ac-[γGlu][γGlu][γGlu]HSSKLQ[Nlys][Nspe][Nspe][Nlys][Nspe][Nspe][Nlys][Nspe][Nspe][Nlys][Nspe][Nspe]-NH2): the values for the CC50 with LNCaP [1] and with PC-3 were 31 µM and 37 µM, respectively. The RatioLC50 in the assay on LNCaP [2] is 1.2.

For the compound `C[C@@H](c1ccccc1)N(CC(N)=O)C(=O)CN(C(=O)CN(CCCCN)C(=O)CN(C(=O)CN(C(=O)CN(CCCCN)C(=O)CN(C(=O)CN(C(=O)CN(CCCCN)C(=O)CN(C(=O)CN(C(=O)CN(CCCCN)C(=O)CC[C@H](NC(=O)CC[C@H](N)C(=O)O)C(=O)O)[C@@H](C)c1ccccc1)[C@@H](C)c1ccccc1)[C@@H](C)c1ccccc1)[C@@H](C)c1ccccc1)[C@@H](C)c1ccccc1)[C@@H](C)c1ccccc1)[C@@H](C)c1ccccc1` ({γGlu-γGlu}-[Nlys][Nspe][Nspe][Nlys][Nspe][Nspe][Nlys][Nspe][Nspe][Nlys][Nspe][Nspe]-NH2), the CC50 came to 10 µM in the assay on LNCaP [1] and 18 µM in the assay on PC-3. Moreover, the RatioLC50 in the assay on LNCaP [2] was 1.8.

With `C[C@@H](c1ccccc1)N(CC(N)=O)C(=O)CN(C(=O)CN(CCCCN)C(=O)CN(C(=O)CN(C(=O)CN(CCCCN)C(=O)CN(C(=O)CN(C(=O)CN(CCCCN)C(=O)CN(C(=O)CN(C(=O)CN(CCCCN)C(=O)[C@@H]1CCCN1C(=O)[C@H](CO)NC(=O)[C@H](CO)NC(=O)[C@H](CCC(N)=O)NC(=O)[C@@H](NC(=O)[C@H](CO)NC(=O)[C@H](CO)NC(=O)[C@@H]1C[C@@H](O)CN1)C1CCCCC1)[C@@H](C)c1ccccc1)[C@@H](C)c1ccccc1)[C@@H](C)c1ccccc1)[C@@H](C)c1ccccc1)[C@@H](C)c1ccccc1)[C@@H](C)c1ccccc1)[C@@H](C)c1ccccc1` (H-[Hyp]SS[Chg]QSSP[Nlys][Nspe][Nspe][Nlys][Nspe][Nspe][Nlys][Nspe][Nspe][Nlys][Nspe][Nspe]-NH2), the CC50 in the assay on LNCaP [1] worked out at 17 µM; in the assay on PC-3, 35 µM. The RatioLC50 in the assay on LNCaP [2] turned out to be 2.1.

As for `CC(=O)N[C@@H](CCC(=O)N[C@@H](CCC(=O)N[C@@H](CCC(=O)N[C@@H](CCC(=O)N[C@@H](Cc1cnc[nH]1)C(=O)N[C@@H](CO)C(=O)N[C@@H](CO)C(=O)N[C@@H](CCCCN)C(=O)N[C@@H](CC(C)C)C(=O)N[C@@H](CCC(N)=O)C(=O)N(CCCCN)CC(=O)N(CC(=O)N(CC(=O)N(CCCCN)CC(=O)N(CC(=O)N(CC(=O)N(CCCCN)CC(=O)N(CC(=O)N(CC(=O)N(CCCCN)CC(=O)N(CC(=O)N(CC(N)=O)[C@@H](C)c1ccccc1)[C@@H](C)c1ccccc1)[C@@H](C)c1ccccc1)[C@@H](C)c1ccccc1)[C@@H](C)c1ccccc1)[C@@H](C)c1ccccc1)[C@@H](C)c1ccccc1)[C@@H](C)c1ccccc1)C(=O)O)C(=O)O)C(=O)O)C(=O)O` (Ac-[γGlu][γGlu][γGlu][γGlu]HSSKLQ[Nlys][Nspe][Nspe][Nlys][Nspe][Nspe][Nlys][Nspe][Nspe][Nlys][Nspe][Nspe]-NH2), the CC50 came out at 35 µM in the assay on LNCaP [1] and 47 µM in the assay on PC-3. Besides, in the assay on LNCaP [2], the RatioLC50 is recorded as 1.3.
